The values that follow come from ChEMBL document CHEMBL5029178, “Discovery of 3-amino-4-{(3S)-3-[(2-ethoxyethoxy)methyl]piperidin-1-yl}thieno[2,3-b]pyridine-2-carboxamide (DS96432529): A potent and orally active bone anabolic agent” (Bioorg Med Chem Lett, 2021).

One data set has as its system ST-2. Description: […] of alkaline phosphatase activity in mouse ST-2 cells. The class given is cell-based.
Data set [1] in a line: Metabolic stability in human liver microsomes assessed as compound remaining at 0.5 mg/ml measured after 30 mins. The class given is ADME, Microsome. Particulars: read-out: Stability. On the technique in general: Microsomes from liver hold many membrane-bound enzymes, among them those of drug oxidation.
Data set [2] can be described thus: AUC (0 to 8 hrs) in Fischer 344 rat at 3 mg/kg, po. The class given is ADME, organism-based. Further details: time < 8 hr, route oral, dose 3 mg/kg. Particulars: in vivo.
Data set [3] in a line: Cmax in Fischer 344 rat at 3 mg/kg, po. The data set is classed as ADME, organism-based. Further details: route oral, dose 3 mg/kg. Particulars: in vivo.
Another data set concerns the target CYP2C9 (Homo sapiens, UniProt P11712). Description: Inhibition of CYP2C9 (unknown origin) at 10 uM. The class given is ADME.
The next data set concerns the target CYP2D6 (Homo sapiens, UniProt P10635). Description: Inhibition of CYP2D6 (unknown origin) at 10 uM. The class given is ADME.
Data set [4] relates to Rattus norvegicus. Description: Anti-osteoporosis activity in ovariectomized rat assessed as […] in areal bone mineral density in humeral diaphysis at 1 mg/kg, po qd measured after 14 weeks. The class given is functional, organism-based.
Data set [5] is described as follows: Solubility of the compound in JP2 fluid at pH 6.8. The data set is classed as physicochemical.
The target in the next data set is CYP2C19 (Homo sapiens, UniProt P33261). Description: Inhibition of CYP2C19 (unknown origin) at 10 uM. The class given is ADME.
Data set [6] deals with Rattus norvegicus. Description: Anti-osteoporosis activity in ovariectomized rat assessed as increase in bone strength at 1 mg/kg, po. The class given is functional, organism-based.
In data set [7] the test system is Rattus norvegicus. Description: Anti-osteoporosis activity in ovariectomized rat assessed as […] in areal bone mineral density in humeral diaphysis at 3 mg/kg, po qd measured after 14 weeks. The class given is functional, organism-based.
The subject of data set [8] is Rattus norvegicus. Description: Anti-osteoporosis activity in ovariectomized rat assessed as […] in areal bone mineral density in total humerus at 1 mg/kg, po qd measured after 14 weeks. The data set is classed as functional, organism-based.
Data set [9] relates to Rattus norvegicus. Description: Antiosteoporotic activity against OVX-induced rat model assessed as increase in deo-xypyridinoline level at 0.3 mg/kg/day. The data set is classed as functional, organism-based.
Data set [10] addresses T1, CYP3A4 (Homo sapiens, UniProt P08684). Description: Inhibition of CYP3A4 (unknown origin) at 10 uM. The data set is classed as ADME.
Data set [11] has as its system Rattus norvegicus. Description: Antiosteoporotic activity against OVX-induced rat model assessed as increase in osteocalcin secretion in serum at 3 mg/kg/day. The class given is functional, organism-based.
Data set [12] concerns the target T1, CYP3A4. Description: Time dependent inhibition of CYP3A4 in human liver microsomes assessed as parent compound remaining at 100 uM. The class given is ADME. Particulars: read-out: TDI.
Another data set has as its target T2, CYP1A2 (Homo sapiens, UniProt P05177).
T2 sequence (P05177 whole entry): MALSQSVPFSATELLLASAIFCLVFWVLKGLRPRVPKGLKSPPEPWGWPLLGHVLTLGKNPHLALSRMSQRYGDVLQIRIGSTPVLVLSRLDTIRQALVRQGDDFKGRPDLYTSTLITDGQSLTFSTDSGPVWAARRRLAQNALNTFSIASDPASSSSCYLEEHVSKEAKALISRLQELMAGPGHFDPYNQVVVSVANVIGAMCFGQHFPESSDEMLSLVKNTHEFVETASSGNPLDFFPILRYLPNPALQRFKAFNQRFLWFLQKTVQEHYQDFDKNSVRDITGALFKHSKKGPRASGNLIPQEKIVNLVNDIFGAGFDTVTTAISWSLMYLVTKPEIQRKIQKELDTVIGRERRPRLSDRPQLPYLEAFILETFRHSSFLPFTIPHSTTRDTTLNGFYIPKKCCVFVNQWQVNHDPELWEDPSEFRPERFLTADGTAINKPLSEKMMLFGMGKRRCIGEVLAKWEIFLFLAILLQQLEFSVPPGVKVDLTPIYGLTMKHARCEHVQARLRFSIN
Description: Inhibition of CYP1A2 (unknown origin) at 10 uM. The class given is ADME.

Data set [13] in a line: AUC in Fischer 344 rat at 100 mg/kg, po. Particulars: in vivo. Further details: dose 100 mg/kg. The data set is classed as ADME, organism-based.
The nature of data set [14]: Effective permeability coefficient at pH 5 by PAMPA method. Particulars: read-out: Peff. The data set is classed as ADME. A general note: The PAMPA barrier holds no transporters, so it reflects passive diffusion.
Data set [15] in a line: Effective permeability coefficient at pH 7.4 by PAMPA method. The class given is ADME. Particulars: read-out: Peff.

In brackets after ≈: the same amount, converted by molar mass. Activity calls are given as the source filed them. The rule behind the calls is not given here.

By AUC(0-t) is commonly meant the area under the concentration-time curve up to a stated or last time point. One may read the Cmax as the maximum level reached in the sampled fluid or tissue. For orientation: inhibition means the share of the control response that was lost under treatment. The low end stands for little suppression, the high end for strong suppression. The solubility is how much of the substance goes into solution per volume. High values mean much dissolved substance, low ones little dissolved substance. By AUC is commonly meant the area under the concentration-time curve, a measure of exposure. A high value points to more exposure.

T1 sequence (P08684 whole entry): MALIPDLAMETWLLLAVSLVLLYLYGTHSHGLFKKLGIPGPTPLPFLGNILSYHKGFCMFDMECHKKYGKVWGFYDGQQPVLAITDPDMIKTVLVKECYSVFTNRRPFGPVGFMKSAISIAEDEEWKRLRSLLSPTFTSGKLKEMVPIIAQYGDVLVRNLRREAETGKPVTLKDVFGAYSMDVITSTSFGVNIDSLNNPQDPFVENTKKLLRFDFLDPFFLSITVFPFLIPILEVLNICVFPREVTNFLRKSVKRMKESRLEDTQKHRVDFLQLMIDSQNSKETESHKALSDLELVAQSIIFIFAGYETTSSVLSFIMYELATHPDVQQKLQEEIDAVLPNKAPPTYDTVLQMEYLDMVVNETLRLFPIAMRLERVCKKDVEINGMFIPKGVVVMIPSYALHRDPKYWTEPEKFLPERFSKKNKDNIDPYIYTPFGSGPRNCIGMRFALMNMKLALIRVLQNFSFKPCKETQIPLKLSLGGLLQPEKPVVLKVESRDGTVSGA
Sequence of CYP2D6 (P10635 whole entry): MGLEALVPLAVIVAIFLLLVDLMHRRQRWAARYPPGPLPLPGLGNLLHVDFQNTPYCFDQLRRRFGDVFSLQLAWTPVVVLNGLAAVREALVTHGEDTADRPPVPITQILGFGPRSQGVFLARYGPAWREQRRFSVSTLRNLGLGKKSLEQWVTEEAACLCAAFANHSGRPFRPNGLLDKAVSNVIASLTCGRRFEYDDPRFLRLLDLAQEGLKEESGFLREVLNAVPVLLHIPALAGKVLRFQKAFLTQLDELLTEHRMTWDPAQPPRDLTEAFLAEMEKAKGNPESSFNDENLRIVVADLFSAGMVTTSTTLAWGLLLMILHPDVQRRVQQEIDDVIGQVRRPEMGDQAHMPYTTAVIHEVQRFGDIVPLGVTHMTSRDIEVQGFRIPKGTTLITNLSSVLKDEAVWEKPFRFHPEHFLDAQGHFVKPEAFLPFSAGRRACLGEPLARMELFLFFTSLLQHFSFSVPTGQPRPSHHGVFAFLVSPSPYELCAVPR
Sequence of CYP2C19 (P33261 whole entry): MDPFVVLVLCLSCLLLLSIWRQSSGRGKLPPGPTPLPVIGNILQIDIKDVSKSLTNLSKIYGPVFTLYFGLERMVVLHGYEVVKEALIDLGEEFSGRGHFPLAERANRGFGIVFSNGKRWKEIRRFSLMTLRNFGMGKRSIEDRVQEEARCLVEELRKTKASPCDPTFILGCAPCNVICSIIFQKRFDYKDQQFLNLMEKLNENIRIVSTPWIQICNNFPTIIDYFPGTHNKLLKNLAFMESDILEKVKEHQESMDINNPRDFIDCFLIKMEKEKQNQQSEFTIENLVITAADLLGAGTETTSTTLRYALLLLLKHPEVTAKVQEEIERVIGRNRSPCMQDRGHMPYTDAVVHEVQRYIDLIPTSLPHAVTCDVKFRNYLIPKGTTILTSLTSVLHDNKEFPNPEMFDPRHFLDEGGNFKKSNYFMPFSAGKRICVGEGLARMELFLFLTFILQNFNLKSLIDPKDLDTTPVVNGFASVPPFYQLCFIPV
Sequence of CYP2C9 (P11712 whole entry): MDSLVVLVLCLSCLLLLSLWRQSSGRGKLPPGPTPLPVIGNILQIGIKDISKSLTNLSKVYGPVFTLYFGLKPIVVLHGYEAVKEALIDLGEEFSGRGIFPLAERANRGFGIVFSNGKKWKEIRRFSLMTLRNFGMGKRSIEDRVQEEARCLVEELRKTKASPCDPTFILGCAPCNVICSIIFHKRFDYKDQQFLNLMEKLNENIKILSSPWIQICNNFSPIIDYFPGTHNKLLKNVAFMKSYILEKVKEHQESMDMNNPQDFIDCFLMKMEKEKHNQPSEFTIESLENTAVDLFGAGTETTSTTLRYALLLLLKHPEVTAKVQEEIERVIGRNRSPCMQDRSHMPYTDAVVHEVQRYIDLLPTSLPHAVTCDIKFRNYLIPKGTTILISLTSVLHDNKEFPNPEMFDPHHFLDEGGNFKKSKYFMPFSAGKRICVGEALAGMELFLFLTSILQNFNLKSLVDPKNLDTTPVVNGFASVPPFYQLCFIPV

As to `COC(C)[C@H]1CCCN(c2ccnc3sc(C(N)=O)c(N)c23)C1` (stereo partly drawn), the EC200 in the data set with ST-2 was determined as 0.146 µg/mL.

Take `COCC1CCCN(c2ccnc3sc(C(N)=O)c(N)c23)C1` (stereo in doubt; 9g) [listing 1 of 2 here]: in data set [1], the remaining at 0.5 h stood at 66%.

With `Cn1ccnc1COC[C@H]1CCCN(c2ccnc3sc(C(N)=O)c(N)c23)C1`, the AUC(0-t) at 8 h in data set [2] came to 45 ng·h/mL. In addition, the EC200 in the data set with ST-2 was 0.019 µg/mL. In [3], this compound came in with a peak concentration (Cmax) of 15.1 ng/mL.

For the compound `COC[C@@H]1CCCN(c2ccnc3sc(C(N)=O)c(N)c23)C1`, in the data set with ST-2, the EC200 amounted to 0.25 µg/mL.

`CCOCCOC[C@H]1CCCN(c2ccnc3sc(C(N)=O)c(N)c23)C1`: the inhibition at 10 µM against CYP2C9 came to 2%; against CYP2D6, 2%; on CYP2C19, 15%; at CYP3A4 [10] it was 10%; at CYP1A2 it was 33%. Besides, the AUC(0-t) at 8 h in data set [2] is 2000 ng·h/mL. Moreover, the EC200 with ST-2 is 0.024 µg/mL. Moreover, the result in the data set on Rattus norvegicus [4], in the data set with Rattus norvegicus [6], with Rattus norvegicus [7], in the data set with Rattus norvegicus [8], in the data set with Rattus norvegicus [9] and in the data set with Rattus norvegicus [11] was Active. This compound also showed a solubility in data set [5] of 500 µg/mL (≈ 1320 µM). The compound further came in with a Cmax in [3] of 804 ng/mL. The remaining at 100 µM on CYP3A4 [12] is 82%.

`CCOCC1CCCN(c2ccnc3sc(C(N)=O)c(N)c23)C1` (stereo not drawn) returned an EC200 in the data set on ST-2 of 0.031 µg/mL.

`CC1CCN(c2ccnc3sc(C(N)=O)c(N)c23)CC1` displayed an EC200 in the data set on ST-2 of 0.23 µg/mL.

Compound `CC(C)OC[C@H]1CCCN(c2ccnc3sc(C(N)=O)c(N)c23)C1` displayed an EC200 in the data set with ST-2 of 0.057 µg/mL.

In the data set on ST-2, `Cc1cc(Oc2ccc(CCCC(=O)N(C)C)cc2F)c2c(N)c(C(N)=O)sc2n1` displayed an EC200 of 0.0005 µg/mL.

In the data set with ST-2, `COCCCC1CCCN(c2ccnc3sc(C(N)=O)c(N)c23)C1` (stereo not drawn) gave an EC200 of 0.026 µg/mL.

In turn, `NC(=O)c1sc2nccc(N3CCC[C@H](COCC(=O)N4CCOCC4)C3)c2c1N` came in with an AUC(0-t) at 8 h in data set [2] of 756 ng·h/mL. Moreover, the EC200 with ST-2 was found to be 0.014 µg/mL. The compound further had a maximum concentration (Cmax) in data set [3] of 217 ng/mL.

Regarding `NC(=O)c1sc2nccc(N3CCCC(CO)C3)c2c1N` (stereo not drawn), the EC200 in the data set on ST-2 was 0.076 µg/mL.

On to `NC(=O)c1sc2nccc(N3CCCN(c4ccccc4)CC3)c2c1N`, for which the EC200 with ST-2 was 0.051 µg/mL. In addition, on CYP3A4 [12], the remaining at 100 µM amounted to 28%.

The compound `Cc1nsc(COC[C@H]2CCCN(c3ccnc4sc(C(N)=O)c(N)c34)C2)n1` had an EC200 in the data set with ST-2 of 0.05 µg/mL.

`Cc1noc(COC[C@H]2CCCN(c3ccnc4sc(C(N)=O)c(N)c34)C2)n1` showed an AUC(0-t) at 8 h in data set [2] of 563 ng·h/mL. Besides, the EC200 in the data set with ST-2 amounted to 0.017 µg/mL. For the same compound, in [3], the concentration peaked (Cmax) at 158 ng/mL.

For the compound `NC(=O)c1sc2nccc(N3CCCCC3)c2c1N`, the inhibition at 10 µM against CYP2C9 turned out to be 4%; against CYP2D6, 9%; on CYP2C19, 0%; at CYP3A4 [10] it was 23%; at CYP1A2, 62%. Moreover, the EC200 in the data set with ST-2 was found to be 0.067 µg/mL. Also, in data set [1], the remaining at 0.5 h stood at 20%. In addition, the remaining at 100 µM on CYP3A4 [12] came out at 92%.

`COC[C@H]1CCCN(c2ccnc3sc(C(N)=O)c(N)c23)C1`: the area under the curve AUC(0-t) at 8 h in data set [2] amounted to 227 ng·h/mL. The same compound returned an EC200 with ST-2 of 0.022 µg/mL. Also, the concentration in solution in [5] (solubility) was 220 µg/mL (≈ 687 µM). In [3], this compound registered a Cmax of 80.5 ng/mL.

On to `Cc1cc(N2CCC[C@H](COCc3nc(C)no3)C2)c2c(N)c(C(N)=O)sc2n1`, for which, in [2], the area under the curve AUC(0-t) at 8 h was 722 ng·h/mL. In the data set on ST-2, this compound had an EC200 of 0.026 µg/mL. In data set [3], this compound returned a Cmax of 188 ng/mL.

In the case of `COCCC1CCCN(c2ccnc3sc(C(N)=O)c(N)c23)C1` (stereo not drawn), the EC200 in the data set with ST-2 turned out to be 0.26 µg/mL.

As to `COCC1CCCN(c2ccnc3sc(C(N)=O)c(N)c23)C1` (racemic), the EC200 in the data set on ST-2 stood at 0.049 µg/mL.

Take `NC(=O)c1sc2nccc(N3CCCC(C(=O)O)C3)c2c1N` (stereo not drawn): the EC200 in the data set on ST-2 was more than 0.3 µg/mL. Besides, the area under the curve (AUC) in [13] was 18800 ng·h/mL.

In the data set with ST-2, `CCCOCC1CCCN(c2ccnc3sc(C(N)=O)c(N)c23)C1` (stereo not drawn) yielded an EC200 of 0.095 µg/mL.

Regarding `CC1CCCN(c2ccnc3sc(C(N)=O)c(N)c23)C1` (stereo not drawn), the EC200 in the data set with ST-2 stood at 0.024 µg/mL. The remaining at 0.5 h in data set [1] came out at 18%.

Take `CCOCCOC[C@H]1CCCN(c2cc(C)nc3sc(C(N)=O)c(N)c23)C1`: the AUC(0-t) at 8 h in [2] came out at 1350 ng·h/mL. Also, the EC200 in the data set with ST-2 came to 0.03 µg/mL. The same compound showed a solubility in data set [5] of 560 µg/mL (≈ 1430 µM). For the same compound, the Cmax in data set [3] is 357 ng/mL.

In the data set on ST-2, `Cn1cnnc1COC[C@H]1CCCN(c2ccnc3sc(C(N)=O)c(N)c23)C1` registered an EC200 of 0.168 µg/mL.

`NC(=O)c1sc2nccc(N3CCC[C@H](COCCO)C3)c2c1N` returned an area under the curve AUC(0-t) at 8 h in [2] of 320 ng·h/mL. Further, the EC200 in the data set with ST-2 came to 0.017 µg/mL. The Papp in data set [14] turned out to be 2.8 ×10⁻⁶ cm/s; in [15] it was 2.9 ×10⁻⁶ cm/s. In addition, the concentration in data set [3] peaked (Cmax) at 114 ng/mL.

As for `NC(=O)c1sc2nccc(N3CCCC(O)C3)c2c1N` (stereo not drawn), the EC200 with ST-2 stood at 0.17 µg/mL.

In the case of `COCC1CCCN(c2ccnc3sc(C(N)=O)c(N)c23)C1` (stereo in doubt; 9g) [listing 2 of 2 here], the EC200 in the data set on ST-2 stood at 0.049 µg/mL.

Turning to `CN(C)c1ccnc2sc(C(N)=O)c(N)c12`, the EC200 in the data set on ST-2 amounted to 0.17 µg/mL.

In the data set on ST-2, `CN(C)C(=O)C1CCCN(c2ccnc3sc(C(N)=O)c(N)c23)C1` (stereo not drawn) gave an EC200 of more than 0.3 µg/mL.
